Experimental data from ChEMBL document CHEMBL2021829, “Design, Synthesis and Biological Evaluation of a Series of Novel Axl Kinase Inhibitors” (ACS Med Chem Lett, 2011).

target: T1, Aurora kinase A (Homo sapiens, UniProt O14965); assay: Inhibition of Aurora A; details: not given
T1 sequence (O14965 whole entry): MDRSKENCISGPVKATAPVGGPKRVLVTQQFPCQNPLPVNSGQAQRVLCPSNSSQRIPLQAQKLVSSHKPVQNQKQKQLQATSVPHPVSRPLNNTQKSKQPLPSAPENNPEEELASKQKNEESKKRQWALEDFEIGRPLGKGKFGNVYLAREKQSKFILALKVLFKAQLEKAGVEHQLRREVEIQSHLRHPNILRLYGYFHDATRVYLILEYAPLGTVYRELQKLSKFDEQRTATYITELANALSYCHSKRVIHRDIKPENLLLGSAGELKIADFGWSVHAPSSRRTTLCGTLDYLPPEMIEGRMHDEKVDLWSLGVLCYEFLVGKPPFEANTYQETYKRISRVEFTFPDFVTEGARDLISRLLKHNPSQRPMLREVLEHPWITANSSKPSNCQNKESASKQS

IC50 | Compound
3 nM | CN1CCN(Cc2ccc(Nc3ncc(Cl)c(Nc4ccccc4S(=O)(=O)N(C)C)n3)cc2)CC1 [DUBERMATINIB]

test system: PSN1; assay: Cytotoxicity against human PSN1 cells after 96 hrs by ATP-lite luminescence assay; type: functional, cell-based; details: PSN1, 96 h

Compound | IC50
CN1CCN(Cc2ccc(Nc3ncc(Cl)c(Nc4ccccc4C(=O)NC4CC4)n3)cc2)CC1 | 64 nM
CN1CCN(Cc2ccc(Nc3ncc(Cl)c(-c4ccc(F)cc4S(=O)(=O)N4CCCC4)n3)cc2)CC1 | 192 nM
CN1CCN(Cc2ccc(Nc3ncc(Cl)c(Nc4ccccc4C(=O)N4CCCC4)n3)cc2)CC1 | 21 nM
CN1CCN(Cc2ccc(Nc3ncc(Cl)c(Nc4ccccc4S(=O)(=O)N4CCCC4)n3)cc2)CC1 | 2 nM
CN1CCN(Cc2ccc(Nc3ncc(Cl)c(Nc4ccc(F)cc4S(=O)(=O)N4CCCC4)n3)cc2)CC1 | 9 nM
CN1CCN(Cc2ccc(Nc3ncc(Cl)c(Nc4ccccc4C(=O)N(C)C)n3)cc2)CC1 | 70 nM

target: Aurora kinase B (Homo sapiens, UniProt Q96GD4); assay: Inhibition of Aurora B; details: not given
Sequence (Q96GD4 whole entry): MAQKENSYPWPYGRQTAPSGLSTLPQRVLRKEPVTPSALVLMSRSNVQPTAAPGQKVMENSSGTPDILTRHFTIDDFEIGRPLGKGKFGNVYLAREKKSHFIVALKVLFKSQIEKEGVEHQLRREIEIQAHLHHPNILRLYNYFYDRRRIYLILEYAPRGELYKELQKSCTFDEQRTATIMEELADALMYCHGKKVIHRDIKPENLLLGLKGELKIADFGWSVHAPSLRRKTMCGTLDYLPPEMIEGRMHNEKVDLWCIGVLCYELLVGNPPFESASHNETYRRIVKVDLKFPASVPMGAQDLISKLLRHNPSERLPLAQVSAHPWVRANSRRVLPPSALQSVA

IC50 | Compound
12.4 nM | CN1CCN(Cc2ccc(Nc3ncc(Cl)c(Nc4ccccc4S(=O)(=O)N(C)C)n3)cc2)CC1 [DUBERMATINIB]

target: T2, Tyrosine-protein kinase receptor UFO (Homo sapiens, UniProt P30530); details: not given
T2 sequence (P30530 whole entry): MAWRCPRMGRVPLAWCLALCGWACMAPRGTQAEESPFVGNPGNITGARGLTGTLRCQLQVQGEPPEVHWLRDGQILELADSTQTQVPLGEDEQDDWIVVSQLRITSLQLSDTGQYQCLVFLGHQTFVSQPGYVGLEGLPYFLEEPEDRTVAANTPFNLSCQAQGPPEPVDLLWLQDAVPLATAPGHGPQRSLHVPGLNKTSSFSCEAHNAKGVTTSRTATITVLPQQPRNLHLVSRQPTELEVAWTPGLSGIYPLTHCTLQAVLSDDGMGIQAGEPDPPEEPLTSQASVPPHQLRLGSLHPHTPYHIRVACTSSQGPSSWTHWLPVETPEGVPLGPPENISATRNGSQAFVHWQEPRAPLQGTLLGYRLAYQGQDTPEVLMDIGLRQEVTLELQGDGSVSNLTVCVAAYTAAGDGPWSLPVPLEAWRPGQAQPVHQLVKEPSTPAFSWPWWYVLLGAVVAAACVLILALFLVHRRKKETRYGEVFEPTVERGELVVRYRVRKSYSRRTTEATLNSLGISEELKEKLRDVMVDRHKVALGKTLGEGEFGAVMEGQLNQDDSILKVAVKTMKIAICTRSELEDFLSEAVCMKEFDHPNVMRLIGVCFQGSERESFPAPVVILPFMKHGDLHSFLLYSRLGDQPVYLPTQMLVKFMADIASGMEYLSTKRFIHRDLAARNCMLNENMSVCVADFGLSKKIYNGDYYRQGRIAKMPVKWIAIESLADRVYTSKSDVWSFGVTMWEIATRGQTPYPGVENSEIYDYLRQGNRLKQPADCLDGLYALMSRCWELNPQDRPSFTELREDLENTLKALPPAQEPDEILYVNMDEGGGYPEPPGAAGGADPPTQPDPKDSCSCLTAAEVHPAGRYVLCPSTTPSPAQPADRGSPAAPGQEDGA

Compound | IC50
Cc1cnc(Nc2ccc(N3CCN(C)CC3)c(F)c2)nc1-c1ccc(F)c(Cl)c1 | 2800 nM
CN1CCN(Cc2ccc(Nc3ncc(Cl)c(-c4ccc(F)cc4S(=O)(=O)N4CCCC4)n3)cc2)CC1 | 91 nM
CN1CCN(Cc2ccc(Nc3ncc(C4CC4)c(-c4ccc(F)c(Cl)c4)n3)cc2)CC1 | 3400 nM
Cc1cnc(Nc2ccc(N3CCN(C)CC3)c(F)c2)nc1-c1ccc(F)cc1 | 6100 nM
Cc1cnc(Nc2ccc(OCCN3CCCCC3)cc2)nc1-c1ccc(F)c(Cl)c1 | 1630 nM

Second part, the compound after the results:

IC50 | Compound
1730 nM | CN1CCN(c2ccc(Nc3ncc(Cl)c(Nc4ccccc4S(=O)(=O)N(C)C)n3)cc2)CC1
82 nM | CN1CCN(Cc2ccc(Nc3ncc(Cl)c(-c4ccc(F)cc4S(=O)(=O)N(C)C)n3)cc2)CC1
19 nM | CN1CCN(Cc2ccc(Nc3ncc(Cl)c(Nc4ccccc4S(=O)(=O)N4CCCC4)n3)cc2)CC1
> 10000 nM | CN1CCN(Cc2ccc(Nc3ncc(C(F)(F)F)c(Nc4ccccc4C(=O)N(C)C)n3)cc2)CC1

target: T3, Tyrosine-protein kinase Mer (Homo sapiens, UniProt Q12866); assay: Inhibition of Mer kinase; details: not given
T3 sequence (Q12866 whole entry): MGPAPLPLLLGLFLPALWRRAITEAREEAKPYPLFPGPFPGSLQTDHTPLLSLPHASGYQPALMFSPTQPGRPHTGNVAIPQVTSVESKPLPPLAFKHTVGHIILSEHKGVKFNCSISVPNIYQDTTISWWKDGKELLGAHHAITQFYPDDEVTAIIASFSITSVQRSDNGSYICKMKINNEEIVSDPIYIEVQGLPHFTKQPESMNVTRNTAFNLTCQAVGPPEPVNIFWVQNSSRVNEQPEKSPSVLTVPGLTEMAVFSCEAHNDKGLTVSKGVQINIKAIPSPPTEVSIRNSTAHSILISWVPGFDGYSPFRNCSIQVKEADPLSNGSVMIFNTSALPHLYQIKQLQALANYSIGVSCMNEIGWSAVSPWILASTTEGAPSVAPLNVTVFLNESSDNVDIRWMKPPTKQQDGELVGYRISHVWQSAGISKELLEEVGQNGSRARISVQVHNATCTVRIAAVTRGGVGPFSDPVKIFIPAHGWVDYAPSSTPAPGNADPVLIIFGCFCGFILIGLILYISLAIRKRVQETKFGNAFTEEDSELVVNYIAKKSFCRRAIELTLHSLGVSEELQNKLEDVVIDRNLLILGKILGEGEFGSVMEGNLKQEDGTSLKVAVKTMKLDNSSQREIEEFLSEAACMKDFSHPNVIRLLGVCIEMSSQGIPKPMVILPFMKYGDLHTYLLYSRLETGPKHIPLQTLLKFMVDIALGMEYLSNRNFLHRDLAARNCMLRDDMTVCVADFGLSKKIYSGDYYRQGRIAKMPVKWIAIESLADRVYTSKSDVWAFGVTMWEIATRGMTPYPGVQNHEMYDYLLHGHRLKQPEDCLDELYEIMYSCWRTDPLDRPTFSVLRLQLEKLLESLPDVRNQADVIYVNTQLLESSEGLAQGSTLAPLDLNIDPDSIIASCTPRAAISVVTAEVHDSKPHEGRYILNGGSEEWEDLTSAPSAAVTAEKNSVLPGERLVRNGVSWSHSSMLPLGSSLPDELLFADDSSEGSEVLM

IC50 | Compound
11300 nM | CC(C)n1cnc2c(Nc3cccc(Cl)c3)nc(NCCO)nc21
